What was measured:
HDAC8 = HDAC8 (Homo sapiens (Human), UniProt Q9BY41); assay: Inhibition of HDAC8; format: biochemical
HeLa nuclear HDACs = assay: Inhibition of HeLa nuclear HDACs (HeLa nuclear extract, mainly HDACs1-3); format: biochemical; details: read-out: HeLa HDAC IC50
HDAC1 = HDAC1 (Homo sapiens (Human), UniProt Q13547); assay: Inhibition of purified HDAC1; format: biochemical; details: class I; read-out: HDAC 1 IC50
HDAC2 = HDAC2 (Homo sapiens (Human), UniProt Q92769); assay: Inhibition of purified HDAC2; details: read-out: HDAC 2 IC50; class I
Sequence of HDAC2 (Q92769 whole entry, species assumed): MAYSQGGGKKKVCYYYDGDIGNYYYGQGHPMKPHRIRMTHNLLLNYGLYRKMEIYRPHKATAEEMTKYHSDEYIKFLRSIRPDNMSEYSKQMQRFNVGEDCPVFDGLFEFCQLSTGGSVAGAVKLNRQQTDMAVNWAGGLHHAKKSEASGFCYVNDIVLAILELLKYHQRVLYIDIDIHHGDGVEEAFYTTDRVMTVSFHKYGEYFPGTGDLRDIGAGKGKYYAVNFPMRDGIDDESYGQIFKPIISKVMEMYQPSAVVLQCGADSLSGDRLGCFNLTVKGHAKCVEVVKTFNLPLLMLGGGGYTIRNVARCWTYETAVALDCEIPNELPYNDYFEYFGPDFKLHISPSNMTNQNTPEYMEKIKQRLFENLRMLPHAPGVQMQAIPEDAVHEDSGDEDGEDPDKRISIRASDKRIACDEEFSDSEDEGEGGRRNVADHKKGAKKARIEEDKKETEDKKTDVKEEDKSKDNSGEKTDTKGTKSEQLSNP

HDAC3 = HDAC3 (Homo sapiens (Human), UniProt O15379); assay: Inhibition of purified HDAC3; details: read-out: HDAC 3 IC50; class I
HDAC4 = HDAC4 (Homo sapiens (Human), UniProt P56524); assay: Inhibition of purified HDAC4; details: read-out: HDAC 4 IC50; class II
Sequence of HDAC4 (P56524 whole entry, species assumed): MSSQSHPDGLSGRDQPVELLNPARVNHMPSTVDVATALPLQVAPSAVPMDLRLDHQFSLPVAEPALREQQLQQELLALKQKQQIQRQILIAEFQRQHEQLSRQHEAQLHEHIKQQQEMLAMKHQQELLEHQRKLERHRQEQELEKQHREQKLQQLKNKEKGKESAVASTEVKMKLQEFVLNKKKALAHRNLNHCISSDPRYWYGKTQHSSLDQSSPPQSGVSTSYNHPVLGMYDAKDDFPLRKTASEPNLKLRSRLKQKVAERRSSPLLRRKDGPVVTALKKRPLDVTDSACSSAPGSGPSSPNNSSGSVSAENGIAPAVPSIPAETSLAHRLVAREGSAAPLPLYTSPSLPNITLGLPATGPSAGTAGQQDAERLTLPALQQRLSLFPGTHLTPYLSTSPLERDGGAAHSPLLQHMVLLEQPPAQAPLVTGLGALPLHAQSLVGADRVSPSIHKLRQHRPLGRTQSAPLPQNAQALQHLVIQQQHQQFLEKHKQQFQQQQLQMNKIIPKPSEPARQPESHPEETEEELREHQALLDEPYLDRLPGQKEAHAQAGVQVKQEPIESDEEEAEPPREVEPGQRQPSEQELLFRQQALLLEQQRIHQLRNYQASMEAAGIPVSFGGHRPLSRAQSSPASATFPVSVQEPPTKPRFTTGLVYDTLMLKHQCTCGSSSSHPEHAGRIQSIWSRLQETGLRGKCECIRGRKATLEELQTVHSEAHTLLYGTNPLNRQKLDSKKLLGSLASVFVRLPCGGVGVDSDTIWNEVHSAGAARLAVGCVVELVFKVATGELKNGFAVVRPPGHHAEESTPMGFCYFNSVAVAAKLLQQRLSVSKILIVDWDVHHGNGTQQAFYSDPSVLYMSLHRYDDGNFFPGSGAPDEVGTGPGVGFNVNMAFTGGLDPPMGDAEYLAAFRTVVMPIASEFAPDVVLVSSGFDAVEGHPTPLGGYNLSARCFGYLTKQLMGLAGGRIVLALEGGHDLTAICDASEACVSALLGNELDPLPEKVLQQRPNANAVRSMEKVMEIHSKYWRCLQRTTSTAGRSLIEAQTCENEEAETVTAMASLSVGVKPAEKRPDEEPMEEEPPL

HDAC6 = HDAC6 (Homo sapiens (Human), UniProt Q9UBN7); assay: Inhibition of purified HDAC6; details: read-out: HDAC 6 IC50; class II
Sequence of HDAC6 (Q9UBN7 whole entry, species assumed): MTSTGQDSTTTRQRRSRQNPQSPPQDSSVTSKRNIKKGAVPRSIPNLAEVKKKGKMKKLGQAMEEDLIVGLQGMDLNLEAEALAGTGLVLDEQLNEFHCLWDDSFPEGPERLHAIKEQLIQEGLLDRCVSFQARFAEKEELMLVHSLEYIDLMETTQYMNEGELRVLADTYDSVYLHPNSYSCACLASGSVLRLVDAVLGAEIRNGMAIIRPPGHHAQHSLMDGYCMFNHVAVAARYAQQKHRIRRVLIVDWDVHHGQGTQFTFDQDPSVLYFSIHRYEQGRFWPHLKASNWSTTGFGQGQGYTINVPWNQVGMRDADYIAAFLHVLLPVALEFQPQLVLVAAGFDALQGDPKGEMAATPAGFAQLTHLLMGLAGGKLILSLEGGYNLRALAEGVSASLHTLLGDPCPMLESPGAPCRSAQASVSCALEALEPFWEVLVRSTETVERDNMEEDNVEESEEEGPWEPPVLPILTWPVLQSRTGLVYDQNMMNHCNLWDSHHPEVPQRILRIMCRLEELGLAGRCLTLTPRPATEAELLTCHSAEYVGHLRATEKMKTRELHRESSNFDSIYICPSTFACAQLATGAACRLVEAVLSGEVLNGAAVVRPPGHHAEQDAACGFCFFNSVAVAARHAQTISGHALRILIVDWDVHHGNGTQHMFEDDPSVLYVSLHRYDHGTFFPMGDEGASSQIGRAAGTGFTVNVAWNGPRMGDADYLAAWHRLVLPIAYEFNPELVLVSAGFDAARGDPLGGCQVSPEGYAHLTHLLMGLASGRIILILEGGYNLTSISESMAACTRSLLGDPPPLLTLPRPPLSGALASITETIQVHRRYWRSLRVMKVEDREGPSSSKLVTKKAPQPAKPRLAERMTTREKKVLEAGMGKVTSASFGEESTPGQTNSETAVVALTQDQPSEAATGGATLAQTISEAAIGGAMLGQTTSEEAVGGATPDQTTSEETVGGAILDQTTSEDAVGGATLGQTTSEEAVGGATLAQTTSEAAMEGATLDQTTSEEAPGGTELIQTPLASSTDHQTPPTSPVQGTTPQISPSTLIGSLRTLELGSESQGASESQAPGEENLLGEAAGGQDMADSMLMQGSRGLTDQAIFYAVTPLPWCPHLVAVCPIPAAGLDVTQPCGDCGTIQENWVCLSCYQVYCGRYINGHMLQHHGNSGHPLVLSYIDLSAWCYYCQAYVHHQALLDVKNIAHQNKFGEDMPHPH

HDAC10 = HDAC10 (Homo sapiens (Human), UniProt Q969S8); assay: Inhibition of purified HDAC10; details: read-out: HDAC 10 IC50; class II
Sequence of HDAC10 (Q969S8 whole entry, species assumed): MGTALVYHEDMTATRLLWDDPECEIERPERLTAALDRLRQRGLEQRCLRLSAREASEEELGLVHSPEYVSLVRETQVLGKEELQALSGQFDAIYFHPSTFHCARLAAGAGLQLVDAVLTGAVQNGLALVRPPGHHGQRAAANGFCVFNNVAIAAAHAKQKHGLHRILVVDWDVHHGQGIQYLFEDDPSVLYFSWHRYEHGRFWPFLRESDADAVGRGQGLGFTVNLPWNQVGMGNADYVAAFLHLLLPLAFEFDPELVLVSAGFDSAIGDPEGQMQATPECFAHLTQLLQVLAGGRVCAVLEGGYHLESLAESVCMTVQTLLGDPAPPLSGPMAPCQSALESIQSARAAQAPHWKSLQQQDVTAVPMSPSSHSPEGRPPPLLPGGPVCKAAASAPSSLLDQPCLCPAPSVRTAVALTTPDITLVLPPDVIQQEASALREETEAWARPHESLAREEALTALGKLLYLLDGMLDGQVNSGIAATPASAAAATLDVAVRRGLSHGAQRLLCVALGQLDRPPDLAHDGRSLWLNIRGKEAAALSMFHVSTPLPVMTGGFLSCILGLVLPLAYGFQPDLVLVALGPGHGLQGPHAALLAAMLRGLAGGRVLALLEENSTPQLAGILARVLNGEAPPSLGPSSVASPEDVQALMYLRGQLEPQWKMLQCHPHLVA

HDAC11 = HDAC11 (Homo sapiens (Human), UniProt Q96DB2); assay: Inhibition of purified HDAC11; details: read-out: HDAC 11 IC50; class IV
Sequence of HDAC11 (Q96DB2 whole entry, species assumed): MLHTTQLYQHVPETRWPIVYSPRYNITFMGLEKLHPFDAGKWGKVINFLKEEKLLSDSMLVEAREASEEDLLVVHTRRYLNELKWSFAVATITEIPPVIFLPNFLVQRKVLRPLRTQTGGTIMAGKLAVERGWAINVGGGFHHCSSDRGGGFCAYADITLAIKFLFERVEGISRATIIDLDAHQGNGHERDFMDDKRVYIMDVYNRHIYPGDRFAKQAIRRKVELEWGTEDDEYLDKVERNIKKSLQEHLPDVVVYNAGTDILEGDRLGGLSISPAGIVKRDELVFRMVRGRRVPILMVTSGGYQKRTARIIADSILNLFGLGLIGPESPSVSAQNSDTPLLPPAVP

H1299 cells = assay: Cytotoxicity / anti-proliferative activity in H1299 lung cancer cells; details: read-out: Cytotoxicity IC50 H1299; mean SD of three determinations
Cl1-1 cells = assay: Cytotoxicity / anti-proliferative activity in CL1-1 lung cancer cells; details: read-out: Cytotoxicity IC50 Cl1-1; mean SD of three determinations
CL1-5 cells = assay: Cytotoxicity / anti-proliferative activity in CL1-5 lung cancer cells; details: read-out: Cytotoxicity IC50 Cl1-5; mean SD of three determinations
[1] = tested on: Ac-p53 (K379) in 32D-CM cells; assay: Western blot of Ac-p53 in CBFβ-SMMHC (CM)-expressing 32D cells; format: cell-based
From the text: Cells were lysed in RIPA buffer containing protease inhibitor cocktail (Roche) and MG132. Antibodies used for IP were conjugated with protein A/G beads using the antibody cross-linking kit (Pierce Biotechnology, Rockford, Ill.) following manufacturer's protocol. For Western blot, proteins were resolved in 10% SDS-PAGE. The antibodies used induced anti-FLAG (Sigma), anti-HDAC8, anti-CBFβ (Santa Cruz), anti-p53 (DO-1), anti-Ac-p53 (K379) (Cell Signaling), anti-p53 (Cell signaling) and anti-β-actin (Sigma). Horseradish peroxidase-conjugated anti-rabbit or anti-mouse secondary antibodies (Jackson ImmunoResearch, West Grove Pa.) were used, followed by detection using the SuperFemto kit (Pierce Biotechnology, Rockford, Ill.).
Class 1 HDACs, including HDAC1, HDAC2, and HDAC3, reportedly could inhibit p53 activity by deacetylating p53 [41-43]. […] To test this, we used lentivirus (pLKO. 1) mediated expression of 2 independent small-hairpin (sh)-RNA sequences against Hdac8 to specifically knock-down Hdac8 in 32D-CM cells. Cells were exposed to IR (3Gy) and analyzed for levels of p53 acetylation 6 h after.

[2] = tested on: p53 target genes in 32D-CM cells; assay: qRT-PCR of p53 target genes in 32D-CM cells; format: cell-based; details: 10 μM, 16 h

Sequence of HDAC8 (Q9BY41 whole entry): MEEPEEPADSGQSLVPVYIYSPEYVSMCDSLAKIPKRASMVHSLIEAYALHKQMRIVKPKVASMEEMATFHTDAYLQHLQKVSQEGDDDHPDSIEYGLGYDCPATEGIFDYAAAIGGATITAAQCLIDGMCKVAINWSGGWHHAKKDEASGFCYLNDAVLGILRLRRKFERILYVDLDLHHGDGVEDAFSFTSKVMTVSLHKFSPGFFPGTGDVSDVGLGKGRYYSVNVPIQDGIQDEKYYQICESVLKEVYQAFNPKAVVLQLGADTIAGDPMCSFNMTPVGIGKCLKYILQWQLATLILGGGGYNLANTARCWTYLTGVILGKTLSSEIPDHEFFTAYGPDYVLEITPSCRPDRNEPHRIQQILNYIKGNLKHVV
Sequence of HDAC1 (Q13547 whole entry, species assumed): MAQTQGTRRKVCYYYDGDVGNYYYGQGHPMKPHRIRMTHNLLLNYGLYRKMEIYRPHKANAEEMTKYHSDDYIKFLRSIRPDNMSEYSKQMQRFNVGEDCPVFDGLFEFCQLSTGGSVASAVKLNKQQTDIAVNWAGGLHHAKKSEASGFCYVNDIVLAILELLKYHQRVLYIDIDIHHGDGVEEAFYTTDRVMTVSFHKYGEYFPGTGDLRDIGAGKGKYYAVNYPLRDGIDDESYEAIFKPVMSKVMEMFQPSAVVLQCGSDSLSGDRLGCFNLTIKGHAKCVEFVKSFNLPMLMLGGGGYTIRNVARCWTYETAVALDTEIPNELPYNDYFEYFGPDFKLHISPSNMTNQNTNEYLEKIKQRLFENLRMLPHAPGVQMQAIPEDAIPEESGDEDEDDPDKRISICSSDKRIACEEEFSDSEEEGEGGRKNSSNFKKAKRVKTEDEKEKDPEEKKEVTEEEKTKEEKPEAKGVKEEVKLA

Question: `COc1ccc(/C=C/C(=O)NO)c(-c2ccc(Br)cc2)c1` [Compound 22b, (E)-N-Hydroxy-4-methoxy-2-(4-bromophenyl)cinnamide] was tested. Which “fold more potent than 22a (HDAC8)” value (HDAC8) did it give?
Answer: 13 fold

Question: What about the “fold more potent than PCI34051 for HDAC8” value (HDAC8) of the same compound?
Answer: around ten

Question: What about the IC50 (HDAC8; mean SD of three determinations) of the same compound?
Answer: 5.7 ± 0.1 nM

Question: And the “HDAC8 inhibitory activity compared with PCI34051” value (HDAC8; result in words)?
Answer: superior to PCI34051

Question: What about the IC50 (HeLa nuclear HDACs) of the same compound?
Answer: > 10000 nM

Question: And the IC50 (HDAC1)?
Answer: 4.5 ± 0.1 nM

Question: And the IC50 (HDAC2)?
Answer: > 20 nM

Question: And the IC50 (HDAC3)?
Answer: 4.8 ± 0.5 nM

Question: What about the IC50 (HDAC4) of the same compound?
Answer: > 20 nM

Question: What about the IC50 (HDAC6) of the same compound?
Answer: > 20 nM

Question: What about the IC50 (HDAC10) of the same compound?
Answer: > 20 nM

Question: And the IC50 (HDAC11)?
Answer: > 20 nM

Question: What about the IC50 (H1299 cells) of the same compound?
Answer: > 10 nM

Question: And the IC50 (Cl1-1 cells)?
Answer: > 10 nM

Question: And the IC50 (CL1-5 cells)?
Answer: > 10 nM

Question: For `COc1ccc(Cn2ccc3ccc(C(=O)NO)cc32)cc1` [PCI34051, reference compound], which IC50 (HeLa nuclear HDACs) is on record?
Answer: > 10000 nM

Question: What about the “Ac-p53 level in CM-expressing cells” value ([1]; Western blot, 6 h) of the same compound?
Answer: remarkably increased Ac-p53

Question: And the “Ac-p53 level, in combination with Nutlin-3” value ([1]; compared to Nutlin-3 alone)?
Answer: enhanced Ac-p53 compared to Nutlin-3 alone

Question: What about the “activation of p53 targets (Bax, Puma, p21, Gadd45b and LincRNA-p21)” value [2] of the same compound?
Answer: Variable levels of activation

Question: And the IC50 (H1299 cells)?
Answer: > 10 nM

Question: And the IC50 (Cl1-1 cells)?
Answer: > 10 nM

Question: And the IC50 (CL1-5 cells)?
Answer: > 10 nM

Reference: patent US11505523B2, “HDAC8 inhibitors for treating cancer” (City of Hope, priority 2013, dated 2022)
